The values below come from PMC5218480 (PLoS ONE, 2017).

For this assay, the system named is MV-4-11 cells. Description: Gene expression microarray analysis (Affymetrix PrimeView) and GSEA. Also noted: RFU PODN (11730768_x_at) / Fold change /veh PODN (11730768_x_at) / RFU LINC00158 (11744669_a_at) / Fold change /veh LINC00158 (11744669_a_at) / RFU DUSP10 (11751237_a_at) / Fold change /veh DUSP10 (11751237_a_at) / RFU ID3 (11757404_x_at) / Fold change /veh ID3 (11757404_x_at) / RFU PLEKHG5 (11737974_s_at) / Fold change /veh PLEKHG5 (11737974_s_at) / RFU LRRC4B (11730491_at) / Fold change /veh LRRC4B (11730491_at) / RFU GIMAP4 (11747438_a_at) / Fold change /veh GIMAP4 (11747438_a_at) / RFU KRT8 (11758183_x_at) / Fold change /veh KRT8 (11758183_x_at) / RFU CNN1 (11734310_a_at) / Fold change /veh CNN1 (11734310_a_at) / RFU VPS37D (11726825_at) / Fold change /veh VPS37D (11726825_at) / RFU C10orf10 (11716522_x_at) / Fold change /veh C10orf10 (11716522_x_at) / RFU KIR2DL2 /// KIR2DL4 /// KIR2DL5A /// KIR2DL5B /// KIR2DS1 /// KIR2DS2 /// KIR2DS3 /// KIR2DS4 /// KIR3DL3 /// KIR3DL3 /// KIR3DS1 (11738374_at) / Fold change /veh KIR2DL2 /// KIR2DL4 /// KIR2DL5A /// KIR2DL5B /// KIR2DS1 /// KIR2DS2 /// KIR2DS3 /// KIR2DS4 /// KIR3DL3 /// KIR3DL3 /// KIR3DS1 (11738374_at) / RFU C1QL1 (11718748_at) / Fold change /veh C1QL1 (11718748_at) / RFU TMPRSS4 (11747572_a_at) / Fold change /veh TMPRSS4 (11747572_a_at) / RFU HAMP (11756126_x_at) / Fold change /veh HAMP (11756126_x_at) / RFU RNFT2 (11725882_a_at) / Fold change /veh RNFT2 (11725882_a_at) / RFU NR4A2 (11747474_a_at) / Fold change /veh NR4A2 (11747474_a_at) / RFU ABCC12 (11746883_a_at) / Fold change /veh ABCC12 (11746883_a_at) / RFU TMEM136 (11760407_x_at) / Fold change /veh TMEM136 (11760407_x_at) / RFU CLDN22 /// WWC2 (11732394_at) / Fold change /veh CLDN22 /// WWC2 (11732394_at) / RFU HLA-DPB1 (11760878_x_at) / Fold change /veh HLA-DPB1 (11760878_x_at) / RFU SPINT1 (11716480_a_at) / Fold change /veh SPINT1 (11716480_a_at) / RFU GAP43 (11754022_s_at) / Fold change /veh GAP43 (11754022_s_at) / RFU A4GNT (11735810_at) / Fold change /veh A4GNT (11735810_at) / RFU PRB3 (11715151_x_at) / Fold change /veh PRB3 (11715151_x_at) / RFU TUBB4B (11761932_at) / Fold change /veh TUBB4B (11761932_at) / RFU CAPN14 (11732068_a_at) / Fold change /veh CAPN14 (11732068_a_at) / RFU TMCC2 (11721928_a_at) / Fold change /veh TMCC2 (11721928_a_at) / RFU IRGQ (11745062_a_at) / Fold change /veh IRGQ (11745062_a_at) / RFU FAM174B (11720279_a_at) / Fold change /veh FAM174B (11720279_a_at) / RFU TMPRSS4 (11748680_a_at) / Fold change /veh TMPRSS4 (11748680_a_at) / RFU FAM212B (11763350_a_at) / Fold change /veh FAM212B (11763350_a_at) / RFU PLEKHG5 (11743358_a_at) / Fold change /veh PLEKHG5 (11743358_a_at) / RFU ZSCAN30 (11745921_a_at) / Fold change /veh ZSCAN30 (11745921_a_at) / RFU CMKLR1 (11741424_a_at) / Fold change /veh CMKLR1 (11741424_a_at) / RFU LOC101060620 /// MAPK8IP1 (11723275_at) / Fold change /veh LOC101060620 /// MAPK8IP1 (11723275_at) / RFU SPTSSB (11747773_x_at) / Fold change /veh SPTSSB (11747773_x_at) / RFU PRSS12 (11739890_at) / Fold change /veh PRSS12 (11739890_at) / RFU BIN1 (11741810_x_at) / Fold change /veh BIN1 (11741810_x_at) / RFU WNT11 (11732464_a_at) / Fold change /veh WNT11 (11732464_a_at) / RFU C10orf10 (11716521_a_at) / Fold change /veh C10orf10 (11716521_a_at) / RFU C5orf56 (11738089_at) / Fold change /veh C5orf56 (11738089_at) / RFU CYB561 (11721691_x_at) / Fold change /veh CYB561 (11721691_x_at) / RFU ANKRD19P (11752326_a_at) / Fold change /veh ANKRD19P (11752326_a_at) / RFU OR2T12 /// OR2T33 /// OR2T8 (11738714_s_at) / Fold change /veh OR2T12 /// OR2T33 /// OR2T8 (11738714_s_at) / RFU VCAN (11748164_a_at) / Fold change /veh VCAN (11748164_a_at) / RFU JSRP1 (11732532_at) / Fold change /veh JSRP1 (11732532_at) / RFU KRTAP10-11 (11738290_x_at) / Fold change /veh KRTAP10-11 (11738290_x_at) / RFU MYO3A (11730013_a_at) / Fold change /veh MYO3A (11730013_a_at) / RFU EBF3 (11725865_a_at) / Fold change /veh EBF3 (11725865_a_at) / RFU CAMK2N1 (11719241_x_at) / Fold change /veh CAMK2N1 (11719241_x_at) / RFU C5orf56 (11738088_a_at) / Fold change /veh C5orf56 (11738088_a_at) / RFU OLFML3 (11715873_a_at) / Fold change /veh OLFML3 (11715873_a_at) / RFU LOC100653217 /// NTM (11731650_a_at) / Fold change /veh LOC100653217 /// NTM (11731650_a_at) / RFU MAPK11 (11762145_a_at) / Fold change /veh MAPK11 (11762145_a_at) / RFU FIZ1 (11724087_x_at) / Fold change /veh FIZ1 (11724087_x_at) / RFU OASL (11726364_x_at) / Fold change /veh OASL (11726364_x_at) / RFU SOX15 (11748057_x_at) / Fold change /veh SOX15 (11748057_x_at) / RFU CD79A (11719716_a_at) / Fold change /veh CD79A (11719716_a_at) / RFU HIST1H1D (11736915_at) / Fold change /veh HIST1H1D (11736915_at) / RFU CASKIN2 (11723855_a_at) / Fold change /veh CASKIN2 (11723855_a_at) / RFU LOC730098 (11760151_x_at) / Fold change /veh LOC730098 (11760151_x_at) / RFU OR4N2 (11742367_at) / Fold change /veh OR4N2 (11742367_at) / RFU PRRT2 (11749266_a_at) / Fold change /veh PRRT2 (11749266_a_at) / RFU SNX32 (11753110_a_at) / Fold change /veh SNX32 (11753110_a_at) / RFU CDHR5 (11726645_a_at) / Fold change /veh CDHR5 (11726645_a_at) / RFU RCAN1 (11760418_a_at) / Fold change /veh RCAN1 (11760418_a_at) / RFU FAM167A (11723789_a_at) / Fold change /veh FAM167A (11723789_a_at) / RFU FAM26E (11764081_at) / Fold change /veh FAM26E (11764081_at) / RFU ISYNA1 (11749810_s_at) / Fold change /veh ISYNA1 (11749810_s_at) / RFU ACY1 (11761880_at) / Fold change /veh ACY1 (11761880_at) / RFU 11764098_at / Fold change /veh 11764098_at / RFU SAMD14 (11745864_x_at) / Fold change /veh SAMD14 (11745864_x_at) / RFU NPB (11741838_a_at) / Fold change /veh NPB (11741838_a_at) / RFU TMPRSS6 (11731388_a_at) / Fold change /veh TMPRSS6 (11731388_a_at) / RFU KRTAP10-2 (11738614_at) / Fold change /veh KRTAP10-2 (11738614_at) / RFU ARHGAP8 /// PRR5-ARHGAP8 (11727945_x_at) / Fold change /veh ARHGAP8 /// PRR5-ARHGAP8 (11727945_x_at) / RFU KRTAP5-7 /// NADSYN1 (11734609_at) / Fold change /veh KRTAP5-7 /// NADSYN1 (11734609_at) / RFU RASL12 (11751679_a_at) / Fold change /veh RASL12 (11751679_a_at) / RFU CDKN2B (11736163_a_at) / Fold change /veh CDKN2B (11736163_a_at) / RFU PRF1 (11729649_at) / Fold change /veh PRF1 (11729649_at) / RFU, ZNF638 /// ZNF638-IT1 / Fold change vs veh, ZNF638 /// ZNF638-IT1 / RFU, PANK3 / Fold change vs veh, PANK3 / RFU, SH3YL1 / Fold change vs veh, SH3YL1 / RFU, ZEB2 / Fold change vs veh, ZEB2 / RFU, NRIP1 / Fold change vs veh, NRIP1 / RFU, PTTG1IP / Fold change vs veh, PTTG1IP / RFU, CAPN2 / Fold change vs veh, CAPN2 / RFU, MED14 / Fold change vs veh, MED14 / RFU, SNORA58 / Fold change vs veh, SNORA58 / RFU, C1orf63 / Fold change vs veh, C1orf63 / RFU, LRRFIP1 / Fold change vs veh, LRRFIP1 / RFU, NDUFAF7 / Fold change vs veh, NDUFAF7 / RFU, SLC12A2 / Fold change vs veh, SLC12A2 / RFU, IBTK / Fold change vs veh, IBTK / RFU, ESF1 / Fold change vs veh, ESF1 / Fold change vs veh, TMEM50B / RFU, TAOK1 / Fold change vs veh, TAOK1 / RFU, ACBD3 / Fold change vs veh, ACBD3 / RFU, TMA16 / Fold change vs veh, TMA16 / RFU, RWDD3 / Fold change vs veh, RWDD3 / RFU, BCAT1 / Fold change vs veh, BCAT1 / RFU, EDEM3 / Fold change vs veh, EDEM3 / RFU, TMEM33 / Fold change vs veh, TMEM33 / RFU, WDR75 / Fold change vs veh, WDR75 / RFU, AHCTF1 / Fold change vs veh, AHCTF1 / RFU, TFRC / Fold change vs veh, TFRC / RFU, ZDHHC17 / Fold change vs veh, ZDHHC17 / RFU, NOM1 / Fold change vs veh, NOM1 / RFU, ARL8B / Fold change vs veh, ARL8B / RFU, ZBTB11 / Fold change vs veh, ZBTB11 / RFU, TAMM41 / Fold change vs veh, TAMM41 / RFU, KIAA1704 /// LOC100996395 / Fold change vs veh, KIAA1704 /// LOC100996395 / RFU, ING1 / Fold change vs veh, ING1 / RFU, TRMT61B / Fold change vs veh, TRMT61B / RFU, FUBP3 / Fold change vs veh, FUBP3 / RFU, TP53 / Fold change vs veh, TP53 / RFU, TNKS2 / Fold change vs veh, TNKS2 / RFU, ZFP14 / Fold change vs veh, ZFP14 / RFU, ACTR2 / Fold change vs veh, ACTR2 / RFU, PPP3R1 / Fold change vs veh, PPP3R1 / RFU, PIK3R1 / Fold change vs veh, PIK3R1 / RFU, HNRNPA1 / Fold change vs veh, HNRNPA1 / RFU, RNF170 / Fold change vs veh, RNF170 / RFU, ZNF28 / Fold change vs veh, ZNF28 / RFU, RNGTT / Fold change vs veh, RNGTT / RFU, OGT / Fold change vs veh, OGT / RFU, BRD1 / Fold change vs veh, BRD1 / RFU, MARS / Fold change vs veh, MARS / RFU, ZNF655 / Fold change vs veh, ZNF655 / RFU, FAHD1 / Fold change vs veh, FAHD1 / RFU, BDP1 / Fold change vs veh, BDP1 / RFU, LRRCC1 / Fold change vs veh, LRRCC1 / RFU, ARID1A / Fold change vs veh, ARID1A / RFU, ZNF146 / Fold change vs veh, ZNF146 / RFU, ZNF330 / Fold change vs veh, ZNF330 / RFU, GPN3 / Fold change vs veh, GPN3 / RFU, C9orf123 / Fold change vs veh, C9orf123 / RFU, N4BP2L2 / Fold change vs veh, N4BP2L2 / RFU, ARFIP1 / Fold change vs veh, ARFIP1 / RFU, FAM179B / Fold change vs veh, FAM179B / RFU, BCL10 / Fold change vs veh, BCL10 / RFU, UHRF1BP1L / Fold change vs veh, UHRF1BP1L / RFU, BET1 / Fold change vs veh, BET1 / RFU, CNOT2 / Fold change vs veh, CNOT2 / RFU, ZNF268 / Fold change vs veh, ZNF268 / Fold change vs veh, ZNF507 / RFU, DGCR2 / Fold change vs veh, DGCR2 / RFU, WDSUB1 / Fold change vs veh, WDSUB1 / Fold change vs veh, HSP90B1 /// MIR3652 / RFU, ADSS / Fold change vs veh, ADSS / RFU, GK / Fold change vs veh, GK / RFU, ZNF148 / Fold change vs veh, ZNF148 / RFU, TAF9 / Fold change vs veh, TAF9 / RFU, SLC1A5 / Fold change vs veh, SLC1A5 / RFU, SLMO2 / Fold change vs veh, SLMO2 / RFU, ABCC4 / Fold change vs veh, ABCC4 / RFU, LOC101060439 /// RAP1B / Fold change vs veh, LOC101060439 /// RAP1B / RFU, RFX7 / Fold change vs veh, RFX7 / RFU, GTPBP10 / Fold change vs veh, GTPBP10 / RFU, CNEP1R1 / Fold change vs veh, CNEP1R1 / RFU, BIVM-ERCC5 /// ERCC5 / Fold change vs veh, BIVM-ERCC5 /// ERCC5 / RFU, ILF3 / Fold change vs veh, ILF3 / RFU 11762660_at / Fold change /veh 11762660_at / RFU VCAN (11757783_s_at) / Fold change /veh VCAN (11757783_s_at) / RFU DDX43 (11728927_at) / Fold change /veh DDX43 (11728927_at) / RFU KRT8 (11758188_x_at) / Fold change /veh KRT8 (11758188_x_at) / RFU NKD1 (11759106_at) / Fold change /veh NKD1 (11759106_at) / RFU SRD5A1 (11742802_a_at) / Fold change /veh SRD5A1 (11742802_a_at) / RFU TPSAB1 /// TPSB2 (11721975_s_at) / Fold change /veh TPSAB1 /// TPSB2 (11721975_s_at) / RFU GSTM3 (11746129_a_at) / Fold change /veh GSTM3 (11746129_a_at) / RFU IL23R (11737362_x_at) / Fold change /veh IL23R (11737362_x_at) / RFU TMEM51 (11727254_a_at) / Fold change /veh TMEM51 (11727254_a_at) / RFU PIWIL2 (11732686_x_at) / Fold change /veh PIWIL2 (11732686_x_at) / RFU ORM1 (11744905_x_at) / Fold change /veh ORM1 (11744905_x_at) / RFU CCDC152 (11743942_at) / Fold change /veh CCDC152 (11743942_at) / RFU ECM1 (11717891_a_at) / Fold change /veh ECM1 (11717891_a_at) / RFU IL23R (11748794_a_at) / Fold change /veh IL23R (11748794_a_at) / RFU TNFAIP8L3 (11732012_x_at) / Fold change /veh TNFAIP8L3 (11732012_x_at) / RFU MBOAT4 (11741988_at) / Fold change /veh MBOAT4 (11741988_at) / RFU 11764193_at / Fold change /veh 11764193_at / RFU TMEM53 (11763286_at) / Fold change /veh TMEM53 (11763286_at) / RFU MAGEB2 (11727129_at) / Fold change /veh MAGEB2 (11727129_at) / RFU TMEM200A (11744735_a_at) / Fold change /veh TMEM200A (11744735_a_at) / RFU CCDC152 (11751479_a_at) / Fold change /veh CCDC152 (11751479_a_at) / RFU FAM211A (11726209_a_at) / Fold change /veh FAM211A (11726209_a_at) / RFU RGS16 (11746705_a_at) / Fold change /veh RGS16 (11746705_a_at) / RFU VCAN (11755009_s_at) / Fold change /veh VCAN (11755009_s_at) / RFU RHOB (11743442_s_at) / Fold change /veh RHOB (11743442_s_at) / RFU RGS16 (11720943_a_at) / Fold change /veh RGS16 (11720943_a_at) / RFU RGS16 (11720944_at) / Fold change /veh RGS16 (11720944_at) / RFU, VPS4B / Fold change vs veh, VPS4B / RFU, CREB1 / Fold change vs veh, CREB1 / RFU, DNAJC13 / Fold change vs veh, DNAJC13 / RFU, GNAQ / Fold change vs veh, GNAQ / RFU, CDK5R1 / Fold change vs veh, CDK5R1 / RFU, ZRANB3 / Fold change vs veh, ZRANB3 / RFU, CUL4A / Fold change vs veh, CUL4A / RFU, CCNY / Fold change vs veh, CCNY / RFU, UFL1 / Fold change vs veh, UFL1 / RFU, COG3 / Fold change vs veh, COG3 / RFU, DIAPH2 / Fold change vs veh, DIAPH2 / RFU, SKA2 / Fold change vs veh, SKA2 / RFU, AFF3 / Fold change vs veh, AFF3 / RFU, LMF1 / Fold change vs veh, LMF1 / RFU, IPO11 / Fold change vs veh, IPO11 / RFU, DFFB / Fold change vs veh, DFFB / RFU, FOXP1 / Fold change vs veh, FOXP1 / RFU, CARD8 / Fold change vs veh, CARD8 / RFU, STRN3 / Fold change vs veh, STRN3 / RFU, ADK / Fold change vs veh, ADK / RFU, RASSF2 / Fold change vs veh, RASSF2 / RFU, WIPF1 / Fold change vs veh, WIPF1 / RFU, LARP1B / Fold change vs veh, LARP1B / RFU, RASA1 / Fold change vs veh, RASA1 / RFU, RB1 / Fold change vs veh, RB1 / RFU, PPFIA1 / Fold change vs veh, PPFIA1 / RFU, MAT2A / Fold change vs veh, MAT2A / RFU, CCT5 / Fold change vs veh, CCT5 / RFU, WDR92 / Fold change vs veh, WDR92 / RFU, CUX1 / Fold change vs veh, CUX1 / RFU, TTC7A / Fold change vs veh, TTC7A / RFU, TMEM135 / Fold change vs veh, TMEM135 / RFU, DEPTOR / Fold change vs veh, DEPTOR / RFU, CPM / Fold change vs veh, CPM / RFU, DNAJB6 / Fold change vs veh, DNAJB6 / RFU, CACNA2D3 / Fold change vs veh, CACNA2D3 / RFU, DTX4 / Fold change vs veh, DTX4 / RFU, TFCP2 / Fold change vs veh, TFCP2 / RFU, GMCL1 /// GMCL1P1 / Fold change vs veh, GMCL1 /// GMCL1P1 / RFU, AEBP2 / Fold change vs veh, AEBP2 / RFU, SNHG1 /// SNORD22 /// SNORD25 /// SNORD26 /// SNORD27 /// SNORD28 /// SNORD29 /// SNORD31 / Fold change vs veh, SNHG1 /// SNORD22 /// SNORD25 /// SNORD26 /// SNORD27 /// SNORD28 /// SNORD29 /// SNORD31 / Fold change (Aza/veh), C12orf56 (ProbeSet 11735607_a_at) / Fold change (ACY-1035/veh), C12orf56 (ProbeSet 11735607_a_at) / Fold change (Aza/veh), FGFR1OP (ProbeSet 11751329_s_at) / Fold change (ACY-1035/veh), FGFR1OP (ProbeSet 11751329_s_at) / Fold change (Aza/veh), VPS36 (ProbeSet 11739960_a_at) / Fold change (ACY-1035/veh), VPS36 (ProbeSet 11739960_a_at) / RFU SYPL1 (11715823_x_at) / Fold change /veh SYPL1 (11715823_x_at) / RFU IGFBP7 (11715501_s_at) / Fold change /veh IGFBP7 (11715501_s_at) / RFU REEP3 (11722064_at) / Fold change /veh REEP3 (11722064_at) / RFU IGLL1 (11728026_x_at) / Fold change /veh IGLL1 (11728026_x_at): dose or concentration left out as unconfirmed. The conditions noted are these: ProbeSet 11747889_x_at; LIST B. Type of assay: cell-based, human.

With `Nc1ccc(-c2cccs2)cc1NC(=O)c1ccc2c(c1)cc(C1CC1)n2CCN1CCOCC1` [ACY-1035], the “RFU, SH3YL1” value was 65.52 RFU.
